Assays:
[1] = test system: HiPS-ELC-TFs; assay: TEER of HiPS-ELC-TFs (tight junction function); assay type: cell-based, human; settings: under action of C10 (tight junction opener); without C10 about 430; FIG. 18A
Text: The tight junction function was confirmed by measuring TEER.

[2] = test system: CYP3A4
Text: (§1) As comparative cells, Caco-2 cells and LS180 cells were similarly investigated.

[3] = test system: ANPEP; assay: ANPEP expression by quantitative real-time RT-PCR in cells differentiating from human iPS cells to enterocyte-like cells; assay type: cell-based; settings: compound added with BIO and DAPT, 5 days culture; versus control without the compounds; FIG. 2B
Procedure: (§2) The definitive endoderm cells generated from the human iPS cell line (Tic) by the method described in Example 1 above were further cultured for 15 days using the medium 3. During a period from day 4 to day 19 after the initiation of differentiation induction, BIO (5 μM) and DAPT (10 μM) were added to the culture system. Simultaneously with the addition of the BIO and the DAPT, the cells were further cultured for 5 days using the medium 3 supplemented with any one of phorbol-myristate-acetate (PMA), transforming growth factor β1 (TGEβ1), Wortmannin, Noggin, SB431542, Follistatin, EGF, R-spondin1, Pentagastrin, or Wnt3a (FIG. 2A and FIG. 3A).
(§3) With regard to the measurement of the enterocyte markers ANPEP and VILLIN, each of the enterocyte markers was measured by a quantitative real-time RT-PCR method using SYBR Green gene expression assays (APPLIED BIOSYSTEMS). […] Thus, high expressions of ANPEP and VILLIN were found when the cells were cultured in the system containing SB431542, EGF, or Wnt3a.
The quantitative real-time RT-PCR was performed by the following method. With the use of ISOGEN (NIPPON GENE), total RNA was collected from the enterocyte-like cells obtained by differentiation induction from the human iPS cells. Each total RNA was treated with RNase-free DNaseI (NEW ENGLAND BIOLABS), and then subjected to a reverse transcription reaction using […] VILO cDNA Synthesis Kit (INVITROGEN) to synthesize complementary DNA (cDNA). As a positive control, the total RNA (CLONTECH, BIOCHAIN four lots in total) of a human adult small intestine (human adult intestine: hereinafter sometimes referred to as “AI”) tissue to be used was similarly subjected to cDNA synthesis. A quantitative real-time RT-PCR method using SYBR Green gene expression assays (APPLIED BIOSYSTEMS) was performed, and quantification was performed with STEPONEPLUS real-time PCR System (APPLIED BIOSYSTEMS).

[4] = test system: VILLIN; assay: VILLIN expression by quantitative real-time RT-PCR in cells differentiating from human iPS cells to enterocyte-like cells; assay type: cell-based; settings: compound added with BIO and DAPT, 5 days culture; versus control without the compounds; FIG. 3B
Procedure: as §2, §3
The quantitative real-time RT-PCR was performed by the following method. […] A quantitative real-time RT-PCR method using SYBR Green gene expression assays (APPLIED BIOSYSTEMS) was performed, and quantification was performed with STEPONEPLUS real-time PCR System (APPLIED BIOSYSTEMS).

[5] = test system: CYP3A4; remark: listed apart in the source
Procedure: As control cells, Caco-2 cells were similarly subjected to measurement. The expression level of the gene was measured by a real-time RT-PCR method.
as §1

[6] = test system: CYP3A4 gene
[7] = test system: CYP3A4 protein

Molecule	CYP3A4 expression induction [2]	expression of ANPEP [3]	expression of VILLIN [4]	other results
CCCCCCCCCC(=O)O [C10, capric acid]				TEER value of the HiPS-ELC-TFs [1]: ~0 Ω·cm^2
CCC1(c2ccccc2)C(=O)NC(=O)NC1=O [PB, phenobarbital]	significant expression induction			
CCCCCCCCCCCCCC(=O)O[C@@H]1[C@@H](C)[C@@]2(O)[C@@H](C=C(CO)C[C@]3(O)C(=O)C(C)=C[C@@H]23)[C@@H]2C(C)(C)[C@]12OC(C)=O [PMA, phorbol-myristate-acetate]		high value		
NC(=O)c1ccc(-c2nc(-c3ccc4c(c3)OCO4)c(-c3ccccn3)[nH]2)cc1 [SB431542]		high value	high value	
C=C1CC[C@H](O)C/C1=C/C=C1\CCC[C@]2(C)[C@@H]([C@H](C)CCCC(C)C)CC[C@@H]12 [VD3, vitamin D3]	significant expression induction			CYP3A4 induction [5]: confirmed; CYP3A4 gene expression level increase as compared to DMSO action group [6]: about 100 fold; CYP3A4 protein expression level [7]: increased
epidermal growth factor [EGF]		high value	high value	

— patent US10889805B2, “Intestinal epithelioid cells” (National Institutes of Biomedical Innovation, Health and …, priority 2015, dated 2021)
